Data as given in patent publication US8933065B2, “N-benzylamide substituted derivatives of 2-(acylamido)acetic acid and 2-(acylamido)propionic acids: potent neurological agents” (The University of North Carolina at Chapel Hill, priority 2008, dated 2015).
Where two headings read alike, the source gives them in different places.

Experiments:
[1] = test system: hippocampal kindled seizures; assay: Hippocampal kindling test, rats; assay type: in vivo; settings: for Preliminary Hippocampal Kindling Test, After discharge duration, Drug / Preliminary Hippocampal Kindling Test, Seizure Score, Drug: rats; for Preliminary Hippocampal Kindling Test, Seizure Score, Drug: after drug (pre-drug score 4-5)
Experimental: The kindling model provides a tool to predict a test compound's activity in complex partial seizures.
Male albino Sprague-Dawley rats (n=8) are kindled to a Stage 5 behavioral seizure. They are treated with an appropriate i.p. dose of the test compound after a 1-week, stimulus-free period. The test compound is evaluated for its effect on kindled motor seizures (seizures scores of 4 and 5), limbic behavior seizures (seizure scores between 1 and 3) and after-discharge duration. After 15 min, each rat is stimulated every 30 min for 3-4 h. Following each stimulation, individual seizure scores and after-discharge duration are recorded. The group mean and standard error of the mean (SEM) are calculated for each parameter.

[2] = test system: maximal electroshock (MES)-induced seizures; assay: Maximal electroshock seizure (MES) test, mice (ip); assay type: in vivo; settings: mice, ip, time (h) in brackets, Table 2, footnotes not given
[3] = test system: mechanical allodynia after partial sciatic nerve ligation; assay: Partial sciatic nerve ligation model, rats (ip); assay type: in vivo; settings: dose 12, p < 0.05
[4] = test system: behavioral toxicity; settings: rat, po; Table 3, Ref 16, 32; cited from earlier work
[5] = test system: maximal electroshock (MES)-induced seizures; settings: rat, po; Table 3, Ref 16, 32; cited from earlier work
[6] = test system: maximal electroshock (MES)-induced seizures; assay: Maximal electroshock seizure (MES) test, rat (po); assay type: in vivo; settings: rat, time (h) in brackets, Table 2
Experimental: The maximal electroconvulsive shock (MES) test is regarded as a standard screen for anticonvulsant activity in terms of inhibition of seizure spread in generalized tonic-clonic seizures.
Groups of at least 8 male albino CF No. 1 mice or male albino Sprague-Dawley rats are treated with 10 mL/kg i.p. or 4 mL/kg p.o. of the test compound solution, respectively. The electrical stimulus in the MES test is 50 mA at 60 Hz for mice and 150 mA at 60 Hz for rats, both delivered for 0.2 sec. Abolition of the hind leg tonic extensor component of the seizure is used as the endpoint.

[7] = test system: behavioral toxicity; assay: Toxicity (behavioral toxicity), rat (po); assay type: in vivo; settings: time (h) in brackets, Table 2
Experimental: Tests are conducted in groups of at least 8 mice or rats to determine the intrinsic neurotoxicity (neuromuscular impairment) after administration of the test compound by the route of administration to be used in the pharmacology studies. Neurotoxicity is determined in male CF No 1 mice by the rotarod procedure. Inability of the mouse to maintain its equilibrium in 3 trials during 1 min on this rotating rod (6 rpm) is used as an indication of such impairment. In Sprague-Dawley rats, minimal motor impairment (MMI) is determined by overt evidence of ataxia, abnormal gait, and stance.

[8] = test system: neurologic toxicity (rotorod test); settings: mice, ip, Table 3, Ref 30, 16, 32; cited from earlier work

Compound	ED50 ([1]; Rattus norvegicus, ip, read-out: Hippocampal Kindled Rats (ip) ED50 (inteval))	Preliminary Hippocampal Kindling Test, After discharge duration, Drug [1]	Preliminary Hippocampal Kindling Test, Seizure Score, Drug [1]	ED50 ([2]; Mus musculus)	fold attentaution of mechanical allodynia at 1 h [3]	MES, ED50 [2]	Tox, TD50 [4]	MES, ED50 [5]	MES, ED50 [6]	Tox, TD50 [7]	Tox, TD50 [8]
COC[C@@H](NC(C)=O)C(=O)NCc1ccc(OCc2cccc(F)c2)cc1 [(R)-3, (R)-2-Acetamido-N-(4-(3-fluorobenzyloxy)benzyl)-3-methoxypropanamide]	12 mg/kg	0 s	0	13 mg/kg	11.2 fold attentaution of mechanical						
CCC1(c2ccccc2)C(=O)NC(=O)NC1=O [Phenobarbital, reference compound]						22 [1]	61 [0.5] milligrams per kilogram				
O=C1NC(=O)C(c2ccccc2)(c2ccccc2)N1 [phenytoin, reference compound]		51 s	3					30 [4.0] milligrams per kilogram	30 [4]	^hNo ataxia observed up to 3000 mg/kg.	66 [2.0] milligrams per kilogram
